According to ChEMBL document CHEMBL1145605, “Novel 2-imidazoles as potent and selective alpha1A adrenoceptor partial agonists” (Bioorg Med Chem Lett, 2008):

Assays:
[1] = target: T1, Alpha-1A adrenergic receptor (Homo sapiens, UniProt P35348); experiment: Agonist activity at human cloned adrenergic alpha-1A receptor expressed in CHO cells assessed as calcium mobilization by FLIPR; type: functional, cell-based
T1 sequence (P35348 whole entry): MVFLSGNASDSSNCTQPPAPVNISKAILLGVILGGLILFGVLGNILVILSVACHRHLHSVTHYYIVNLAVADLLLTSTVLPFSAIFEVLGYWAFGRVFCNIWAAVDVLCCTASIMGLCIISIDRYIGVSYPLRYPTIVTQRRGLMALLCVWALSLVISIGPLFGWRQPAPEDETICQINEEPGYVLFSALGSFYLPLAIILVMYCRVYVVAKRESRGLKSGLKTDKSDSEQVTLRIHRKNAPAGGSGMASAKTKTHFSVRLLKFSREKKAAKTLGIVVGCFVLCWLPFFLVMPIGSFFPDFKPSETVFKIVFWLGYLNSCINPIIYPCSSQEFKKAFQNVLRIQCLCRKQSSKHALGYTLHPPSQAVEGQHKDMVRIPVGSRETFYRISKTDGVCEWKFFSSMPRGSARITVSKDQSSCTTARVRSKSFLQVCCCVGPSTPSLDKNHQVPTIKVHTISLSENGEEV

[2] = target: T2, Alpha-2A adrenergic receptor (Homo sapiens, UniProt P08913); experiment: Agonist activity at human cloned adrenergic alpha-2A receptor expressed in CHOK1 cells by beta-lactamase reporter gene assay; type: functional, cell-based, CHO-K1
T2 sequence (P08913 whole entry): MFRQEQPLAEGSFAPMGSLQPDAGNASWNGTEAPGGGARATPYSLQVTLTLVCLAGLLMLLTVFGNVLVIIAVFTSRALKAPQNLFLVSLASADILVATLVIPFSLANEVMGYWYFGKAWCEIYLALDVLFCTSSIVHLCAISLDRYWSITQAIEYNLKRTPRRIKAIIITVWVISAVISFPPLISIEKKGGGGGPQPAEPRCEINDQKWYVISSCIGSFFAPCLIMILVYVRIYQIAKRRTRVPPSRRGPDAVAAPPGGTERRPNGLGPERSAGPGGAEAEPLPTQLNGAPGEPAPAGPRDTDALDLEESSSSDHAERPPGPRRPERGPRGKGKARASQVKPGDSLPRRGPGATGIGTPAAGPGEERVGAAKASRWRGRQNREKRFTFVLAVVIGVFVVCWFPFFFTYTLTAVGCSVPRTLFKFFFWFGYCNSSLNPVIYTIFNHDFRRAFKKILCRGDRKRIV

[3] = target: T3, Alpha-1B adrenergic receptor (Homo sapiens, UniProt P35368); experiment: Agonist activity at human cloned adrenergic alpha-1B receptor expressed in CHO cells assessed as calcium mobilization by FLIPR; type: functional, cell-based
T3 sequence (P35368 whole entry): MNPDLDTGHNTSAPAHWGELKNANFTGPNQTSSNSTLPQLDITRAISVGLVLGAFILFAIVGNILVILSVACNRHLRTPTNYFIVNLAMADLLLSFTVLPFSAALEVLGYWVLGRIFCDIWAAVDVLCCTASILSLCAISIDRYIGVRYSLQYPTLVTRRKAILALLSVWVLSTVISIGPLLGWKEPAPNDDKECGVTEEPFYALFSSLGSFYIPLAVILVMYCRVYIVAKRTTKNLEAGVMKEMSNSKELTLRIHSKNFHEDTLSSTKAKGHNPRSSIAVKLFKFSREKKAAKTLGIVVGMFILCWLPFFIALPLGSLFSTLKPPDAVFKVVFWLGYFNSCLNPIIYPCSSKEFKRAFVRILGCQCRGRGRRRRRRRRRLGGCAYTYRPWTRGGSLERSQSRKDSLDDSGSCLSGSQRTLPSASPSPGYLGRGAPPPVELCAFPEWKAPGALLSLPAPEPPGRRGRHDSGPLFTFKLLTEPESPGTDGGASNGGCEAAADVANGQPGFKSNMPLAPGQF

[4] = target: T4, Alpha-1D adrenergic receptor (Homo sapiens, UniProt P25100); experiment: Agonist activity at human cloned adrenergic Alpha-1D receptor expressed in CHO cells assessed as calcium mobilization by FLIPR; type: functional, cell-based
T4 sequence (P25100 whole entry): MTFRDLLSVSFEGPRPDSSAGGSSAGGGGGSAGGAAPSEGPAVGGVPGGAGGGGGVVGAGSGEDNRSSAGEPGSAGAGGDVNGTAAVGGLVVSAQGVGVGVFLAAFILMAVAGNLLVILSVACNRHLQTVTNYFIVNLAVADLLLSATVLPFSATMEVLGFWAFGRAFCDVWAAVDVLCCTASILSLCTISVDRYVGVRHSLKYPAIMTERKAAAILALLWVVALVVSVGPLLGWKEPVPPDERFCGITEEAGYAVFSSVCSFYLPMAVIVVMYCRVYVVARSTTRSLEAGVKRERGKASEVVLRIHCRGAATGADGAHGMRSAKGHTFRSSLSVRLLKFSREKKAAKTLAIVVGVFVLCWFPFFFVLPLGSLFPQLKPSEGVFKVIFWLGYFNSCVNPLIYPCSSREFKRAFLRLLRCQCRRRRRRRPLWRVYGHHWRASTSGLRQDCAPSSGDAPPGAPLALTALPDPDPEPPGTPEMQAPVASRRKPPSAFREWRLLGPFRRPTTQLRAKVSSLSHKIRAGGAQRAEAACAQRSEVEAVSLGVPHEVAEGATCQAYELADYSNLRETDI

[5] = target: T5, Alpha-1A adrenergic receptor (Homo sapiens) (UniProt P35348); experiment: Agonist activity at human cloned adrenergic alpha-1A receptor expressed in CHO cells assessed as calcium mobilization by FLIPR relative to phenylephrine; type: functional, cell-based
T5 sequence (whole entry): T1 sequence (P35348 whole entry)

[6] = target: T6, Alpha-2A adrenergic receptor (Homo sapiens) (UniProt P08913); experiment: Agonist activity at human cloned adrenergic alpha-2A receptor expressed in CHOK1 cells by beta-lactamase reporter gene assay relative to dexmeditomidine; type: functional, cell-based; conditions: CHO-K1
T6 sequence (whole entry): T2 sequence (P08913 whole entry)

[7] = target: T7, Alpha-1D adrenergic receptor (Homo sapiens) (UniProt P25100); experiment: Agonist activity at human cloned adrenergic Alpha-1D receptor expressed in CHO cells assessed as calcium mobilization by FLIPR relative to phenylephrine; type: functional, cell-based
T7 sequence (whole entry): T4 sequence (P25100 whole entry)

Row | SMILES | EC50 [1] [µM] | EC50 [2] [µM] | EC50 [3] [µM] | EC50 [4] [µM] | Emax [5] [%] | Emax [6] [%] | Emax [7] [%] | EC50 ([2]; cho-k1) [µM] | EC50 ([3]; cho) [µM] | EC50 ([4]; cho) [µM]
1 | Clc1ccc2c(c1-c1cn[nH]c1)CCC2c1ncc[nH]1 (configuration not stated) | 0.078 | > 10 | > 10 | > 10 | – | – | – | – | – | –
2 | Cn1cc(-c2cccc3c2CCC3c2ncc[nH]2)cn1 (configuration not stated) | > 2.9 | > 10 | > 10 | > 10 | 12 | – | – | – | – | –
3 | CNC(=O)c1cccc2c1CCC2c1ncc[nH]1 (configuration not stated) | 2.2 | 4.34 | > 10 | > 10 | 59 | 44 | – | – | – | –
4 | c1cc(-c2cn[nH]c2)c2c(c1)C(c1ncc[nH]1)CC2 (configuration not stated) | 0.014 | > 10 | > 10 | 0.319 | 84 | – | 52 | – | – | –
5 | c1ccc(-c2cccc3c2CCC3c2ncc[nH]2)nc1 (configuration not stated) | 1.15 | > 10 | > 10 | > 10 | 53 | – | – | – | – | –
6 | Cc1oncc1-c1cccc2c1CCC2c1ncc[nH]1 (configuration not stated) | 0.111 | > 10 | > 10 | > 10 | 63 | – | – | – | – | –
7 | c1cc(-c2ncco2)c2c(c1)C(c1ncc[nH]1)CC2 (configuration not stated) | 0.17 | > 10 | > 10 | 1.39 | 63 | – | 38 | – | – | –
8 | c1ccc2c(c1)CCC2c1ncc[nH]1 (configuration not stated) | 0.473 | – | > 10 | > 10 | 54 | – | – | – | – | –
9 | Cn1ccc(-c2cccc3c2CCC3c2ncc[nH]2)n1 (configuration not stated) | > 1.3 | > 10 | > 10 | > 10 | 19 | – | – | – | – | –
10 | CS(=O)(=O)Nc1cccc2c1CCCC2c1ncc[nH]1 (stereo in doubt; 17a) [listing 1 of 2 here] | 0.142 | – | – | – | – | – | – | > 10 | > 10 | > 10
11 | CS(=O)(=O)Nc1cccc2c1CCCC2c1ncc[nH]1 (stereo in doubt; 17a) [listing 2 of 2 here] | – | – | – | – | 79 | – | – | – | – | –
12 | CS(=O)(=O)Nc1cccc2c1CCCC2c1ncc[nH]1 (stereo in doubt; 17b) [listing 1 of 2 here] | – | – | – | – | 47 | – | – | – | – | –
13 | Cn1nccc1-c1cccc2c1CCC2c1ncc[nH]1 (configuration not stated) | 0.278 | > 10 | > 10 | > 10 | 58 | – | – | – | – | –
14 | CS(=O)(=O)Nc1cccc2c1CCCC2c1ncc[nH]1 (stereo in doubt; 17b) [listing 2 of 2 here] | 2.15 | > 10 | > 10 | > 10 | – | – | – | – | – | –
15 | COc1c(Cl)ccc2c1CCC2c1ncc[nH]1 (configuration not stated) | 0.451 | – | > 10 | > 10 | 24 | – | – | – | – | –
16 | COc1c(C)ccc2c1CCC2c1ncc[nH]1 (configuration not stated) | 0.167 | 0.327 | > 10 | > 10 | 40 | 89 | – | – | – | –
17 | c1cc(-c2nccs2)c2c(c1)C(c1ncc[nH]1)CC2 (configuration not stated) | 0.426 | > 10 | > 10 | 3.19 | 64 | – | 27 | – | – | –
18 | Clc1ccc2c(c1-c1ccn[nH]1)CCC2c1ncc[nH]1 (configuration not stated) | 0.322 | > 10 | > 10 | > 10 | 40 | – | – | – | – | –
19 | CS(=O)(=O)Nc1cccc2c1CCCC2c1ncc[nH]1 (stereo in doubt; 17) [listing 1 of 2 here] | – | – | – | – | 79 | – | – | – | – | –
20 | Cc1c(OCC2=NCCN2)ccc(Cl)c1NS(C)(=O)=O [DABUZALGRON] | – | > 10 | > 10 | > 10 | 60 | – | – | – | – | –
21 | CCS(=O)(=O)Nc1cccc2c1CCC2c1ncc[nH]1 (configuration not stated) | 0.032 | > 10 | > 10 | > 10 | 86 | – | – | – | – | –
22 | CCS(=O)(=O)Nc1cccc(Cc2c[nH]cn2)c1 | 0.009 | > 10 | > 10 | > 10 | 96 | – | – | – | – | –
23 | CS(=O)(=O)Nc1cccc2c1CCCC2c1ncc[nH]1 (stereo in doubt; 17) [listing 2 of 2 here] | 0.234 | – | – | – | – | – | – | > 10 | > 10 | > 10
24 | c1cc(-c2cc[nH]n2)c2c(c1)C(c1ncc[nH]1)CC2 (configuration not stated) | 0.052 | > 10 | 0.6 | 0.336 | – | – | – | – | – | –
25 | CCCS(=O)(=O)Nc1cccc2c1CCC2c1ncc[nH]1 (configuration not stated) | 1.34 | – | > 10 | > 10 | 54 | – | – | – | – | –
26 | Cc1ccc2c(c1NS(C)(=O)=O)CCC2c1ncc[nH]1 (configuration not stated) | 0.033 | – | > 10 | > 10 | 83 | – | – | – | – | –
27 | Cc1[nH]ncc1-c1cccc2c1CCC2c1ncc[nH]1 (configuration not stated) | 0.003 | > 10 | 0.902 | 0.634 | – | – | – | – | – | –
28 | CS(=O)(=O)Nc1cccc2c1CCC2c1ncc[nH]1 (configuration not stated) | 0.07 | > 10 | > 10 | > 10 | 87 | – | – | – | – | –
